Where two headings read alike, the source gives them in different places.
Experiments:
[1] = system: arteriellen Blutdruck; assay: Effect on arterial blood pressure in anaesthetised normotensive rats (ED25 from minima of blood pressure curves); format: in vivo, männlichen Sprague-Dawley Ratten; settings: Rattus norvegicus, anaesthetised (Nembutal 70 mg/kg i.p.) normotensive rats, from minimum of blood pressure curve, read-out: ED₂₅
Procedure: Der Einfluß der Verbindungen auf den arteriellen Blutdruck wurde an narkotisierten normotensiven männlichen Sprague-Dawley Ratten untersucht. Als Betäubungsmittel wurde Nembutal® in einer Dosis von 70 mg/kg i.p. verwendet. Die Blutdruckmessung erfolgte mittels Katheter in der Arteria carotis mit einem Druckwandler (Statham P 23 Db). Für die i.v. Applikation wurden die Substanzen in Dimethylsulfoxid gelöst und mit Wasser verdünnt. Die Konzentration der Stammlösung war 1mg/ml, wobei die Lösung 15 % Dimethylsulfoxid enthielt. Anteile dieser Stammlösung wurden für die Injektion jeweils frisch mit Wasser verdünnt.
Es kamen Konzentrationen von 50 (100), 30 (30) und 10 (10) µg/ml für die i.v. Applikation, 100 (100), 50 (60) und 30 (30) µg/ml für die i.d. Applikation zur Anwendung. Die angegebenen Zahlen beziehen sich dabei auf das Experiment a), die in Klammern angegebenen Zahlen auf Experiment b).
Die Blutdruckmessung wurde nach 0; 0,2; 0,4; 1; 2; 3; 10; 15 und 30 min. nach der i.v. Applikation sowie nach 0; 1; 3; 5; 10; 15; 20; 30; 40; 50 und 60 min. nach der i.d. Applikation vorgenommen. Die ED₂₅ Werte wurden aus dem Minima der jeweiligen Blutdruckkurven bestimmt. • a) (±)-(3R*, 4S*, 5ʹS*)-6-Cyano-3,4-dihydro-2,2-dimethyl-4-(2ʹ-oxo-5ʹ-methyl-1ʹ-pyrrolidinyl)-2H-benzo[b]pyran-3-ol (Verbindung aus Beispiel 1): ED₂₅= 19 µg/kg (i.v.) ED₂₅=42 µg/kg (i.d.) • b) (±)-6-Cyano-3,4-dihydro-2,2-dimethyl-trans-4-(2-oxo-1-pyrrolidinyl-2H-benzo[b]pyran-3-ol (Beispiel aus J. Med. Chem. 1986, 29, 2194-2201) ED₂₅= 42 µg/kg (i.v.) ED₂₅= 82 µg/kg (i.d.)

[2] = system: Meerschweinchen-Ureteren; assay: Influence on KCl-induced rhythmic contractions of isolated guinea pig ureters in vitro; format: cell-based; settings: 10⁻⁷ mol/l test substance, KCl 4 x 10⁻² mol/l, mean ± SEM; for inhibition at 0.1 µM: Cavia porcellus
Excerpt: Beeinflussung der KCl-induzierten rhythmischen Kontraktionen an Meerschweinchen-Ureteren in vitro
Männliche Meerschweinchen wurden durch Nackenschlag und Entbluten aus den Carotiden getötet. Die beiden Ureteren wurden sofort entnommen, wobei der Bereich nahe dem Nierenkelch wegen der dort vorhandenen Schrittmacher-Aktivität gemieden wurde. 2 cm lange Stücke wurden zunächst in einer Petrischale, die Tyrode-Lösung enthielt, von Bindegewebe befreit und dann jeweils mit einer Vorspannung von 4,9 mN (=0,5 p) in ein 25 ml-Organbad (Fa. Rhema Labortechnik, Hofheim) gehängt. Das Organbad enthielt eine auf 37° gehaltene und mit Carbogen (95 % O₂, 5 % CO₂) durchperlte Tyrodelösung mit folgender Zusammensetzung (mmol/l): NaCl 137, KCl 2,68, MgSO₄ 1,05, CaCl₂ 1,8, NaH₂PO₄ 0,41, NaHCO₃ 11,9, Glucose 5,55. Die Kontraktionen wurden isometrisch gemessen unter Verwendung von Gould/Statham UC2 Gebern. Nach einer Äquiilibrierungszeit von mindestens 15 Minuten wurde KCl in das Organbad zugegeben, wobei eine Konzentration von 4 x 10⁻² mol/l erreicht wurde. Der Agonist wurde 2 Minuten im Bad belassen, wobei phasische Kontraktionen auftraten, ohne einen nennenswerten Anstieg der Grundspannung zu bewirken.
Danach wurde 1 Minute ausgespült, woraufhin die rhythmischen Kontraktionen sofort aufhörten. Nach einem zweiten Durchgang von Agonistgabe und Spülvorgang wurde die Prüfsubstanz (Benzopyran-Derivat) in das Organbad zugegeben (in Form einer Lösung in 0,1 ml Ethanol, die Endkonzentrationen betrugen in allen Fällen 10⁻⁷ mol/l) und eine Einwirkungszeit von einer Minute abgewartet, bevor KCl zugesetzt wurde. An den folgenden Spülvorgang schlossen sich zwei abschließende Agonistgabe/Spülgänge an. Von den jeweils zweiminütigen Perioden unter KCl-Einwirkung wurden folgende Parameter bestimmt: 1. mittlere Kontraktionskraft, 2. Frequenz der Kontraktionen und 3. Produkt aus mittlerer Kontraktionskraft und Frequenz. Ausschlußkriterien waren mittlere Kontraktionskräfte unter 4 mN oder Frequenzen unter 2/min bei mehr als einer der vier Perioden, bei denen nur der Agonist KCl im Bad vorhanden war. Ausgewertet wurde die prozentuale Hemmung unter Prüfsubstanz im Vergleich zum gemittelten Wert aus den beiden Vorläufen.
Neben dem arithmetischen Mittelwert (x) wurde der Standardfehler des Mittelwerts (SEM) errechnet.

[3] = percent inhibition of product of mean contraction force and frequency, read-out: k·v [%]
[4] = percent inhibition vs mean of the two pre-runs, read-out: Frequenz v [%]
[5] = percent inhibition vs mean of the two pre-runs, read-out: mittlere Kontraktionskraft k [%]
[6] = percent inhibition vs mean of the two pre-runs, 0.1 µM

SMILES | ED25 ([1]; iv) | ED25 ([1]; i.d.) | inhibition at 0.1 µM [2, 3] | inhibition at 0.1 µM [2, 4] | inhibition at 0.1 µM [2, 5] | k·v [%] ([2]; percent inhibition of product of mean contraction force and frequency, 0.1 µM) | Frequenz v [%] [2, 6] | mittlere Kontraktionskraft k [%] [2, 6]
CC1(C)Oc2ccc(C#N)cc2C(N2CCCC2=O)C1O (racemic) [(±)-6-Cyano-3,4-dihydro-2,2-dimethyl-trans-4-(2-oxo-1-pyrrolidinyl-2H-benzo[b]pyran-3-ol, reference compound] | 0.042 mg/kg | 0.082 mg/kg | 61 ± 7% | 58 ± 5% | 8 ± 8% |  |  | 
C[C@H]1CCC(=O)N1[C@H]1c2cc(C#N)ccc2OC(C)(C)[C@@H]1O (racemic) [(3R*, 4S*, 5ʹS*)-6-Cyano-3,4-dihydro-2,2-dimethyl-4-[2ʹ-oxo-5ʹ-methyl-1ʹ-pyrrolidinyl]-2H-benzo[b]pyran-3-ol] | 0.019 mg/kg | 0.042 mg/kg |  |  |  |  |  | 
C[C@@H]1CCC(=O)N1[C@H]1c2cc(C#N)ccc2OC(C)(C)[C@@H]1O [(-)-(3R, 4S, 5ʹR)-6-Cyano-3,4-dihydro-2,2-dimethyl-4-(2ʹ-oxo-5ʹ-methyl-1ʹ-pyrrolidinyl)-2H-benzo[b]pyran-3-ol] |  |  | 96 ± 2% | 89 ± 4% | 75 ± 8% |  |  | 
C[C@@H]1CCC(=O)N1[C@H]1c2cc(C#N)ccc2OC(C)(C)[C@@H]1O (racemic) [±)-(3R^*,4S^*,5'R^*)-6-Cyano-3,4-dihydro-2,2-dimethyl-4-(2'-] [(3R*, 4S*, 5ʹR*)-6-Cyano-3,4-dihydro-2,2-dimethyl-4-[2ʹ-oxo-5ʹ-methyl-1ʹ-pyrrolidinyl)-2H-benzo[b]pyran-3-ol] |  |  |  |  |  | 96 ± 1% | 86 ± 4% | 69 ± 11%
